Reference: US11325938B2, “CD73 inhibitors” (ORIC Pharmaceuticals, Inc., priority 2018, dated 2022)

The compounds below were run against CD73 (Homo sapiens (Human), UniProt P21589) (assay: Biochemical assay: inhibition of CD73 activity (AMP hydrolysis, Malachite Green readout)). Details: CD73 0.3208 nM, AMP 15 μM, 25 mM Tris-HCl pH 7.4, RT, absorbance 620 nm.
Experimental: Example A1: Biochemical Assay
Assay Reaction Conditions
• Assay Volume: 70 μl • Reaction Volume: 50 μl • CD73: 0.3208 nM • AMP: 15 μM • Assay Buffer: 25 mM Tris-HCL, pH 7.4, 0.01% Brij-35, 0.01% BSA, 5 mM MgCl2 Assay Procedure:
Made dose titration of testing compounds in assay buffer, 10 points ½ log titrations in duplicates starting at 100 μM.
Added 25 μl of CD73 to each well for a final concentration of 320 pM.
Incubated at RT for 15 min.
Added 25 μl of AMP to each well for a final concentration of 15 μM.
Incubated at RT for 10 min.
Added 10 μl of Malachite Green Reagent A, incubate at RT for 10 min.
Added 10 of Malachite Green Reagent B, incubate at RT for 45 min.
Read the Absorbance on Envision plate reader using excitation filter: Cy5 […].
The ability of the compounds disclosed herein to inhibit CD73 activity was quantified and the respective IC50 values were determined. Table 2 provides the biochemical IC50 values of compounds disclosed herein.

Chain of CD73 (P21589 27-574): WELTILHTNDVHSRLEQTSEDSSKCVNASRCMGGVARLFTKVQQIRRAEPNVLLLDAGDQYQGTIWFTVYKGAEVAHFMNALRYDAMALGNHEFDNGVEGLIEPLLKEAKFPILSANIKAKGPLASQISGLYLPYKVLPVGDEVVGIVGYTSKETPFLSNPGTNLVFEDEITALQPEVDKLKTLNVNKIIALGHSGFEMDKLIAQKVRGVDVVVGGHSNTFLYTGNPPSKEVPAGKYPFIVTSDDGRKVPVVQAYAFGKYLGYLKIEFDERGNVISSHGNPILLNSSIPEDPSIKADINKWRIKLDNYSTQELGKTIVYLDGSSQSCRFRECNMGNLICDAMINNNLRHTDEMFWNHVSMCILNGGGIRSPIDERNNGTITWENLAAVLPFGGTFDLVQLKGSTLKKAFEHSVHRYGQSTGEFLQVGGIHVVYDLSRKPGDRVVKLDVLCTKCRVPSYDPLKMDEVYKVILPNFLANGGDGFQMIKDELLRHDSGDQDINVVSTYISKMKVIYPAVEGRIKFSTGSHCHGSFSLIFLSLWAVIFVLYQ

Row | SMILES | IC50
1 | CC(CO)(OC[C@H]1O[C@@H](n2ncc3c(N[C@@H]4CC[C@H]5CCC[C@H]54)nc(Cl)nc32)[C@H](O)[C@@H]1O)P(=O)(O)O (stereo partly drawn) [Example 133, (2-(((2R,3S,4R,5R)-5-(6-chloro-4-(((1R,3aR,6aR)-octahydropentalen-1-yl)amino)-1H-pyrazolo[3,4-d]pyrimidin-1-yl)-3,4-dihydroxytetrahydrofuran-2-yl)methoxy)-1-hydroxypropan-2-yl)phosphonic aci] | ≤ 100 nM
2 | CC(CO)(OC[C@H]1O[C@@H](n2ccc3c(NC4CCCC4)nc(Cl)nc32)[C@H](O)[C@@H]1O)P(=O)(O)O (stereo partly drawn) [Example 91, (2-(((2R,3S,4R,5R)-5-(2-Chloro-4-(cyclopentylamino)-7H-pyrrolo[2,3-d]pyrimidin-7-yl)-3,4-dihydroxytetrahydrofuran-2-yl)methoxy)-1-hydroxypropan-2-yl)phosphonic acid] | ≤ 100 nM
3 | C[C@@](CO)(OC[C@H]1O[C@@H](n2ncc3c(NC4CCCC4)nc(CO)nc32)[C@H](O)[C@@H]1O)P(=O)(O)O [Example 128, ((R)-2-(((2R,3S,4R,5R)-5-(4-(cyclopentylamino)-6-(hydroxymethyl)-1H-pyrazolo[3,4-d]pyrimidin-1-yl)-3,4-dihydroxytetrahydrofuran-2-yl)methoxy)-1-hydroxypropan-2-yl)phosphonic acid] | ≤ 100 nM
4 | COCC(COC)(OC[C@H]1O[C@@H](n2ncc3c(NCC4CC4)nc(Cl)nc32)[C@H](O)[C@@H]1O)P(=O)(O)O [Example 125, (2-(((2R,3S,4R,5R)-5-(6-chloro-4-((cyclopropylmethyl)amino)-1H-pyrazolo[3,4-d]pyrimidin-1-yl)-3,4-dihydroxytetrahydrofuran-2-yl)methoxy)-1,3-dimethoxypropan-2-yl)phosphonic acid] | ≤ 100 nM
5 | O=P(O)(O)CS(=O)(=O)C[C@H]1O[C@@H](n2nnc3c(NCC4CC4)cc(Cl)nc32)[C@H](O)[C@@H]1O [Example 25, (((((2S,3S,4R,5R)-5-(5-chloro-7-((cyclopropylmethyl)amino)-3H-[1,2,3]triazolo[4,5-b]pyridin-3-yl)-3,4-dihydroxytetrahydrofuran-2-yl)methyl)sulfonyl)methyl)phosphonic acid] | ≤ 100 nM
6 | N#CC(OC[C@H]1O[C@@H](n2ncc3c(NC4CCCC4)nc(Cl)nc32)[C@H](O)[C@@H]1O)P(=O)(O)O (stereo partly drawn) [Example 2, ((((2R,3S,4R,5R)-5-(6-Chloro-4-(cyclopentylamino)-1H-pyrazolo[3,4-d]pyrimidin-1-yl)-3,4-dihydroxytetrahydrofuran-2-yl)methoxy)(cyano)methyl)phosphonic acid] | 100 to 1000 nM
7 | C[C@](CO)(OC[C@H]1O[C@@H](n2ncc3c(NC4CCCC4)nc(Cl)nc32)[C@H](O)[C@@H]1O)P(=O)(O)O [Example 62, ((S)-2-(((2R,3S,4R,5R)-5-(6-chloro-4-(cyclopentylamino)-1H-pyrazolo[3,4-d]pyrimidin-1-yl)-3,4-dihydroxytetrahydrofuran-2-yl)methoxy)-1-hydroxypropan-2-yl)phosphonic acid] | ≤ 100 nM
8 | C[C@@](CS(C)(=O)=O)(OC[C@H]1O[C@@H](n2ncc3c(NC4CCCC4)nc(Cl)nc32)[C@H](O)[C@@H]1O)P(=O)(O)O [Example 74, ((R)-2-(((2R,3S,4R,5R)-5-(6-chloro-4-(cyclopentylamino)-1H-pyrazolo[3,4-d]pyrimidin-1-yl)-3,4-dihydroxytetrahydrofuran-2-yl)methoxy)-1-(methylsulfonyl)propan-2-yl)phosphonic acid] | ≤ 100 nM
9 | O=P(O)(O)C(CO)(CO)OC[C@H]1O[C@@H](n2ncc3c(NCC4CC4)nc(Cl)nc32)[C@H](O)[C@@H]1O [Example 132, (2-(((2R,3S,4R,5R)-5-(6-chloro-4-((cyclopropylmethyl)amino)-1H-pyrazolo[3,4-d]pyrimidin-1-yl)-3,4-dihydroxytetrahydrofuran-2-yl)methoxy)-1,3-dihydroxypropan-2-yl)phosphonic acid] | ≤ 100 nM
10 | CNc1nc(Cl)nc2c1cnn2[C@@H]1O[C@H](COC(CO)P(=O)(O)O)[C@@H](O)[C@H]1O (stereo partly drawn) [Example 29, (1-(((2R,3S,4R,5R)-5-(6-chloro-4-(methylamino)-1H-pyrazolo[3,4-d]pyrimidin-1-yl)-3,4-dihydroxytetrahydrofuran-2-yl)methoxy)-2-hydroxyethyl)phosphonic acid] | ≤ 100 nM
11 | CC(CCO)(OC[C@H]1O[C@@H](n2ncc3c(NC4CCCC4)nc(Cl)nc32)[C@H](O)[C@@H]1O)P(=O)(O)O (stereo partly drawn) [Example 56, (2-(((2R,3S,4R,5R)-5-(6-Chloro-4-(cyclopentylamino)-1H-pyrazolo[3,4-d]pyrimidin-1-yl)-3,4-dihydroxytetrahydrofuran-2-yl)methoxy)-4-hydroxybutan-2-yl)phosphonic acid] | ≤ 100 nM
12 | CS(=O)(=O)CC(CO)(OC[C@H]1O[C@@H](n2ncc3c(NC4CCCC4)nc(Cl)nc32)[C@H](O)[C@@H]1O)P(=O)(O)O (stereo partly drawn) [Example 107, (2-(((2R,3S,4R,5R)-5-(6-chloro-4-(cyclopentylamino)-1H-pyrazolo[3,4-d]pyrimidin-1-yl)-3,4-dihydroxytetrahydrofuran-2-yl)methoxy)-1-hydroxy-3-(methylsulfonyl)propan-2-yl)phosphonic acid] | ≤ 100 nM

Now from value to compound:

Row | IC50 | SMILES
13 | ≤ 100 nM | NC(=O)OC[C@](CO)(OC[C@H]1O[C@@H](n2ncc3c(NC4CCCC4)nc(Cl)nc32)[C@H](O)[C@@H]1O)P(=O)(O)O (racemic) [Example 216, rac-((R)-1-(carbamoyloxy)-2-(((2R,3S,4R,5R)-5-(6-chloro-4-(cyclopentylamino)-1H-pyrazolo[3,4-d]pyrimidin-1-yl)-3,4-dihydroxytetrahydrofuran-2-yl)methoxy)-3-hydroxypropan-2-yl)phosphonic acid]
14 | ≤ 100 nM | CC(COCC1CC1)(OC[C@H]1O[C@@H](n2ncc3c(NC4CCCC4)nc(Cl)nc32)[C@H](O)[C@@H]1O)P(=O)(O)O (stereo partly drawn) [Example 153, (2-(((2R,3S,4R,5R)-5-(6-chloro-4-(cyclopentylamino)-1H-pyrazolo[3,4-d]pyrimidin-1-yl)-3,4-dihydroxytetrahydrofuran-2-yl)methoxy)-1-(cyclopropylmethoxy)propan-2-yl)phosphonic acid]
15 | ≤ 100 nM | C[C@](CO)(OC[C@H]1O[C@@H](n2ncc3c(NC4CCCC4)nc(C#CCO)nc32)[C@H](O)[C@@H]1O)P(=O)(O)O (racemic) [Example 199, rac-((R)-2-(((2S,3R,4S,5S)-5-(4-(cyclopentylamino)-6-(3-hydroxyprop-1-yn-1 yl)-1H-pyrazolo[3,4-d]pyrimidin-1-yl)-3,4-dihydroxytetrahydrofuran-2-yl)methoxy)-1-hydroxypropan-2-yl)phosphonic acid]
16 | ≤ 100 nM | O=P(O)(O)[C@@](CO)(Cc1nn[nH]n1)OC[C@H]1O[C@@H](n2ncc3c(NC4CCCC4)nc(CO)nc32)[C@H](O)[C@@H]1O (racemic) [Example 218, rac-((R)-2-(((2R,3S,4R,5R)-5-(4-(cyclopentylamino)-6-(hydroxymethyl)-1H-pyrazolo[3,4-d]pyrimidin-1-yl)-3,4-dihydroxytetrahydrofuran-2-yl)methoxy)-1-hydroxy-3-(2H-tetrazol-5-yl)propan-2-yl)phosphonic acid]
17 | ≤ 100 nM | CC(C)(O)COc1nc(NC2CCCC2)c2cnn([C@@H]3O[C@H](COC(C)(CO)P(=O)(O)O)[C@@H](O)[C@H]3O)c2n1 (stereo partly drawn) [Example 146, (2-(((2R,3S,4R,5R)-5-(4-(cyclopentylamino)-6-(2-hydroxy-2-methylpropoxy)-1H-pyrazolo[3,4-d]pyrimidin-1-yl)-3,4-dihydroxytetrahydrofuran-2-yl)methoxy)-1-hydroxypropan-2-yl)phosphonic acid]
18 | 100 to 1000 nM | COCC(OC[C@@H]1O[C@H](n2ncc3c(NC4CCCC4)nc(Cl)nc32)[C@@H](O)[C@H]1O)(C(=O)O)P(=O)(O)O (mixture of isomers) [Example 220, rac-(R)-2-(((2S,3R,4S,5S)-5-(6-chloro-4-(cyclopentylamino)-1H-pyrazolo[3,4-d]pyrimidin-1-yl)-3,4-dihydroxytetrahydrofuran-2-yl)methoxy)-3-methoxy-2-phosphonopropanoic acid]
19 | ≤ 100 nM | O=P(O)(O)[C@@H](CO)OC[C@H]1O[C@@H](n2nnc3c(NC4CCCC4)cc(Cl)nc32)[C@H](O)[C@@H]1O [Example 149, ((S)-1-(((2R,3S,4R,5R)-5-(5-chloro-7-(cyclopentylamino)-3H-[1,2,3]triazolo[4,5-b]pyridin-3-yl)-3,4-dihydroxytetrahydrofuran-2-yl)methoxy)-2-hydroxyethyl)phosphonic acid]
20 | ≤ 100 nM | O=P(O)(O)C(COCCO)OC[C@H]1O[C@@H](n2ncc3c(NC4CCCC4)nc(Cl)nc32)[C@H](O)[C@@H]1O (mixture of isomers) [Example 166, rac-(1-(((2R,3S,4R,5R)-5-(6-chloro-4-(cyclopentyalmino)-1H-pyrazolo[3,4-d]pyrimidin-1-yl)-3,4-dihydroxytetrahydrofuran-2-yl)methoxy)-2-(2-hydroxyethoxy)ethyl)phosphonic acid]
21 | ≤ 100 nM | O=P(O)(O)C(CO)(CO)OC[C@H]1O[C@@H](n2ncc3c(NCc4ccc(Cl)cc4)nc(Cl)nc32)[C@H](O)[C@@H]1O (racemic) [Example 201, rac-(2-(((2R,3S,4R,5R)-5-(6-chloro-4-((4-chlorobenzyl)amino)-1H-pyrazolo[3,4-d]pyrimidin-1-yl)-3,4-dihydroxytetrahydrofuran-2-yl)methoxy)-1,3-dihydroxypropan-2-yl)phosphonic acid]
